Biological target: T1, γ-secretase (Homo sapiens, UniProt P49768)
T1 construct: 293/EBNA-1 cell strain (Invitrogen) was cultured in 10% FBS (Hyclone)/DMEM (Invitrogen); host or cells: 293/EBNA-1 (HEK293) cells; only the substrate rat EphA7-HA was transfected
Assay: Analysis of EphA7 processing in EphA7-transfected 293/EBNA-1 cell strain (Western blotting with anti-HA antibody)
Assay type: cell-based
Set-up: dose or concentration left out as unconfirmed
Conditions: HEK293 (293/EBNA-1) cells expressing rat EphA7-HA; Compound E added to culture broth, cultured one day; compared with cells without Compound E
Procedure: Whether or not EphA7 is a substrate for γ-secretase was evaluated using HEK293 cells expressing a gene encoding EphA7 with an HA tag added to its C-terminus, in the presence of a γ-secretase inhibitor. As the γ-secretase inhibitor, (2S)-2-{[(3,5-difluorophenyl)acetyl]amino}-N-[(3S)-1-methyl-2-oxo-5-phenyl-2,3-dihydro-1H-1,4-benzodiazepin-3-yl]propanamide (hereinafter, sometimes referred to as “Compound E”) (Alexis Biochemicals) was used.
293/EBNA-1 cell strain (Invitrogen) was cultured in 10% FBS (Hyclone)/DMEM (Invitrogen) under 5% CO2 at 37° C., followed by transfection thereinto of the gene encoding rat EphA7 with an HA tag added to its C-terminus using Lipofectamine 2000 (Invitrogen). After one day culture under the same conditions, […] Compound E (γ-secretase inhibitor; Alexis Biochemicals) was added to the culture broth. Cells were cultured for another day under the same conditions. Then, the transfected HEK293 cells were collected with PBS (Sigma) and sonicated with a sonicator (Taitec VP-5S) to disrupt cells. Then, the quantity of protein was determined with Protein Assay Kit (BioRad). […]
First, the substrate for γ-secretase is cut off its extracellular domain by other protease. […] Since reactions proceed very quickly from the first cleavage to the final degradation by proteasome, the substrate is […] when detected by Western blotting.

C[C@H](NC(=O)Cc1cc(F)cc(F)c1)C(=O)N[C@H]1N=C(c2ccccc2)c2ccccc2N(C)C1=O [Compound E, (2S)-2-{[(3,5-difluorophenyl)acetyl]amino}-N-[(3S)-1-methyl-2-oxo-5-phenyl-2,3-dihydro-1H-1,4-benzodiazepin-3-yl]propanamide]
Accumulation of EphA7 C-terminal fragment (CTF, band around 50 kDa) on Western blot, indicating inhibited cleavage of EphA7 by γ-secretase: CTF was accumulated

— US8530181B2, “Method of screening for compounds which affect the cleavage of EphA7 byγ-secretase” (Eisai R&D Management Co., Ltd., priority 2007, dated 2013)
